Test results published in patent US12077503B2, “Substituted cyclic amides and their use as herbicides” (FMC CORPORATION, priority 2015, dated 2024).

Columns and labels:
Type in all cases: in vivo
[1] = test system: pigweed (Amaranthus retroflexus); assay: Test A postemergence; conditions: Amaranthus retroflexus, post-emergence, 240 h, postemergence
In short: (§1)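 Seeded soil received test chemicals as a preemergence directed spray, and seedlings at one to two leaves, 2–10 cm tall, received them postemergence, in a non-phytotoxic, surfactant-containing solvent mixture. Pots were held in a greenhouse for approximately 10 d, then rated for injury from 0, no effect, to 100, complete control.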

Kochia (Kochia scoparia) [2] = assay: Test A postemergence; conditions: Bassia scoparia, post-emergence, 240 h, postemergence
In short: as §1

[3] = test system: wheat (Triticum aestivum); assay: Test A postemergence; conditions: Triticum aestivum, post-emergence, 240 h, postemergence
In short: as §1

[4] = test system: blackgrass (Alopecurus myosuroides); assay: Test A postemergence; conditions: Alopecurus myosuroides, post-emergence, 240 h, postemergence
In short: as §1

[5] = test system: ryegrass, Italian (Italian ryegrass, Lolium multiflorum); assay: Test A postemergence; conditions: Lolium multiflorum, post-emergence, 240 h, postemergence
In short: as §1

[6] = test system: Galium (catchweed bedstraw, Galium aparine); assay: Test A postemergence; conditions: Galium, post-emergence, 240 h, postemergence
In short: as §1

corn (Zea mays) = assay: Test A postemergence; conditions: Zea mays, post-emergence, 240 h, postemergence
In short: as §1

[7] = test system: giant foxtail (Setaria faberii); assay: Test A postemergence; conditions: Setaria faberi, post-emergence, 240 h, postemergence
In short: as §1

[8] = test system: ragweed (common ragweed, Ambrosia elatior); assay: Test A postemergence; conditions: Ambrosia artemisiifolia, post-emergence, 240 h, postemergence
In short: as §1

[9] = test system: barnyardgrass (Echinochloa crus-galli); assay: Test A postemergence; conditions: Echinochloa crus-galli, post-emergence, 240 h, postemergence
In short: as §1

[10] = test system: pigweed (Amaranthus retroflexus); assay: Test A preemergence; conditions: Amaranthus retroflexus, pre-emergence, 240 h, preemergence, 0 to 100 scale where 0 is no effect and 100 is complete control, read-out: Pigweed plant response rating
Kochia (Kochia scoparia) [11] = assay: Test A preemergence; conditions: Bassia scoparia, pre-emergence, 240 h, preemergence, 0 to 100 scale where 0 is no effect and 100 is complete control, read-out: Kochia plant response rating
In short: as §1

[12] = test system: ryegrass, Italian (Italian ryegrass, Lolium multiflorum); assay: Test A preemergence; conditions: Lolium multiflorum, pre-emergence, 240 h, preemergence, 0 to 100 scale where 0 is no effect and 100 is complete control, read-out: Ryegrass, Italian plant response rating
In short: as §1

[13] = test system: giant foxtail (Setaria faberii); assay: Test A preemergence; conditions: Setaria faberi, pre-emergence, 240 h, preemergence, 0 to 100 scale where 0 is no effect and 100 is complete control, read-out: Foxtail, Giant plant response rating
In short: as §1

[14] = test system: ragweed (common ragweed, Ambrosia elatior); assay: Test A preemergence; conditions: Ambrosia artemisiifolia, pre-emergence, 240 h, preemergence, 0 to 100 scale where 0 is no effect and 100 is complete control, read-out: Ragweed plant response rating
In short: as §1

[15] = 125 g ai/ha, visual injury rating, approximately 10 d

## CSc1ccccc1NC(=O)[C@H]1C(=O)NC[C@@H]1c1ccc(F)c(C#N)c1 [Compound 1201]
[1]; 125 g ai/ha, visual injury vs untreated controls after approx. 10 d, 0 = no effect, 100 = complete control, read-out: Pigweed plant response rating (0 to 100 scale)
  pest or weed control at 125 g/ha: 20%
[1]; 500 g ai/ha, 0 to 100 scale, 0 is no effect, 100 is complete control, read-out: Pigweed plant response rating
  pest or weed control at 500 g/ha: 60%
Kochia (Kochia scoparia) [2]; 125 g ai/ha, visual injury vs untreated controls after approx. 10 d, 0 = no effect, 100 = complete control, read-out: Kochia plant response rating (0 to 100 scale)
  pest or weed control at 125 g/ha: 40%
Kochia (Kochia scoparia) [2]; 500 g ai/ha, 0 to 100 scale, 0 is no effect, 100 is complete control, read-out: Kochia plant response rating
  pest or weed control at 500 g/ha: 70%
[3]; 125 g ai/ha, visual injury vs untreated controls after approx. 10 d, 0 = no effect, 100 = complete control, read-out: Wheat plant response rating (0 to 100 scale)
  plant injury at 125 g/ha: 0%
[3]; 500 g ai/ha, 0 to 100 scale, 0 is no effect, 100 is complete control, read-out: Wheat plant response rating
  plant injury at 500 g/ha: 0%
[4]; 125 g ai/ha, visual injury vs untreated controls after approx. 10 d, 0 = no effect, 100 = complete control, read-out: Blackgrass plant response rating (0 to 100 scale)
  pest or weed control at 125 g/ha: 0%
[4]; 500 g ai/ha, 0 to 100 scale, 0 is no effect, 100 is complete control, read-out: Blackgrass plant response rating
  pest or weed control at 500 g/ha: 0%
[5]; 125 g ai/ha, visual injury vs untreated controls after approx. 10 d, 0 = no effect, 100 = complete control, read-out: Ryegrass, Italian plant response rating (0 to 100 scale)
  pest or weed control at 125 g/ha: 0%
[5]; 500 g ai/ha, 0 to 100 scale, 0 is no effect, 100 is complete control, read-out: Ryegrass, Italian plant response rating
  pest or weed control at 500 g/ha: 0%
[6]; 125 g ai/ha, visual injury vs untreated controls after approx. 10 d, 0 = no effect, 100 = complete control, read-out: Galium plant response rating (0 to 100 scale)
  pest or weed control at 125 g/ha: 30%
[6]; 500 g ai/ha, 0 to 100 scale, 0 is no effect, 100 is complete control, read-out: Galium plant response rating
  pest or weed control at 500 g/ha: 50%
Corn (Zea mays); 125 g ai/ha, visual injury vs untreated controls after approx. 10 d, 0 = no effect, 100 = complete control, read-out: Corn plant response rating (0 to 100 scale)
  plant injury at 125 g/ha: 0%
Corn (Zea mays); 500 g ai/ha, 0 to 100 scale, 0 is no effect, 100 is complete control, read-out: Corn plant response rating
  plant injury at 500 g/ha: 0%
[7]; 125 g ai/ha, visual injury vs untreated controls after approx. 10 d, 0 = no effect, 100 = complete control, read-out: Foxtail, Giant plant response rating (0 to 100 scale)
  pest or weed control at 125 g/ha: 70%
[7]; 500 g ai/ha, 0 to 100 scale, 0 is no effect, 100 is complete control, read-out: Foxtail, Giant plant response rating
  pest or weed control at 500 g/ha: 90%
[8]; 125 g ai/ha, visual injury vs untreated controls after approx. 10 d, 0 = no effect, 100 = complete control, read-out: Ragweed plant response rating (0 to 100 scale)
  pest or weed control at 125 g/ha: 0%
[8]; 500 g ai/ha, 0 to 100 scale, 0 is no effect, 100 is complete control, read-out: Ragweed plant response rating
  pest or weed control at 500 g/ha: 30%
[9]; 125 g ai/ha, visual injury vs untreated controls after approx. 10 d, 0 = no effect, 100 = complete control, read-out: Barnyardgrass plant response rating (0 to 100 scale)
  pest or weed control at 125 g/ha: 70%
[9]; 500 g ai/ha, 0 to 100 scale, 0 is no effect, 100 is complete control, read-out: Barnyardgrass plant response rating
  pest or weed control at 500 g/ha: 100%
[10]; [15]
  pest or weed control at 125 g/ha: 20%
[10]; 500 g ai/ha
  pest or weed control at 500 g/ha: 70%
Kochia (Kochia scoparia) [11]; [15]
  pest or weed control at 125 g/ha: 30%
Kochia (Kochia scoparia) [11]; 500 g ai/ha
  pest or weed control at 500 g/ha: 70%
[12]; [15]
  pest or weed control at 125 g/ha: 0%
[12]; 500 g ai/ha
  pest or weed control at 500 g/ha: 0%
[13]; [15]
  pest or weed control at 125 g/ha: 70%
[13]; 500 g ai/ha
  pest or weed control at 500 g/ha: 80%
[14]; [15]
  pest or weed control at 125 g/ha: 60%
[14]; 500 g ai/ha
  pest or weed control at 500 g/ha: 70%
